Structures can show the parent of a compound that is named as a salt.
Columns and labels:
[1] = target: influenza virus neuraminidase (wild-type) (Influenza A virus, UniProt Q9IGQ6); assay type: biochemical
influenza = settings: in vivo; cited from earlier work

influenza virus neuraminidase (wild-type), sequence (Q9IGQ6 whole entry, looked up): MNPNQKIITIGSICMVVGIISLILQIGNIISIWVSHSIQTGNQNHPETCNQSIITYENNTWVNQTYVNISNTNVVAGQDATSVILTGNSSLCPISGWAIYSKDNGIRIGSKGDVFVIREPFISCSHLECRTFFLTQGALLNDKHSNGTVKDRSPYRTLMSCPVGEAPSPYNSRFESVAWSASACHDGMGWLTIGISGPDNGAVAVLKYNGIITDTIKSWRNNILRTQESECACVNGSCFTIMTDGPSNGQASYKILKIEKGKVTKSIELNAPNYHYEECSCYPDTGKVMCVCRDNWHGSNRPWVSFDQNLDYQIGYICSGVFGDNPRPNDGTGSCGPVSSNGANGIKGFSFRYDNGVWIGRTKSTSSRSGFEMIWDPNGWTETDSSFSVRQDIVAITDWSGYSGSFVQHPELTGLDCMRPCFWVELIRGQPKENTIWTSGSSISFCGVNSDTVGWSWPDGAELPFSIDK

| SMILES | inhibiting activity on wild-type virus strains [1] | reduction of severity level of influenza symptoms (influenza) | shortening of the state of illness (influenza) |
| --- | --- | --- | --- |
| COCCO[C@@H]1CCCN([C@@H]2C=C(C(=O)O)C[C@H](N)[C@H]2NC(C)=O)C1 [Example 1, (3R,4R,5S)-4-acetamido-5-amino-3-((3S)-3-(2-methoxylethoxyl)piperidin)-1-cyclohexene-1-carboxylic acid trifluoroacetate] | perfect inhibiting activities |  |  |
| COCCO[C@@H]1CCCN([C@@H]2C=C(C(=O)O)C[C@H](NC(=N)N)[C@H]2NC(C)=O)C1 [Example 11, (3R,4R,5S)-4-acetamido-5-guanidino-3-((3S)-(2-methoxylethyoxyl)piperidin)-1-cyclohexene-1-carboxylic acid trifluoroacetate] | perfect inhibiting activities |  |  |
| CCOC(=O)C1=C[C@@H](OC(CC)CC)[C@H](NC(C)=O)[C@@H](N)C1.O=P(O)(O)O [Oseltamivir phosphate, ethyl (3R,4R,5S)-4-acetamido-5-amino-3-(1-ethylpropoxyl)-1-cyclohexene-1-carboxylate phosphate] |  | 40% | 3.1 days |

Reference: patent US10919856B2 (priority 2016, dated 2021)
